Measured values: patent US5736384A (priority 1994, dated 1998)
Entries after “also recorded” stand apart in the source; their conditions may differ. Like-named read-outs stand apart in the source and are kept apart here.

Key:
XP1 [1] = experiment: Effects of metal salts on enzyme activity of XP1; type: biochemical, Bacillus sp. 2113; details: metal salt 1 mM, 4° C. overnight, also 1 mM in reaction mixture; None = 100
Experimental: (§1) Various metal salts were added to each of the enzyme solutions to a concentration of 1 mM and retained at 4° C. overnight. Then, a metal salt of the same kind was also added to a reaction mixture to a concentration of 1 mM, and the enzyme activities of XP1 and XP2 were determined.

XP2 [2] = experiment: Effects of metal salts on enzyme activity of XP2; type: biochemical, Bacillus sp. 2113; details: for Relative Activity(%) XP2: metal salt 1 mM, 4° C. overnight, also 1 mM in reaction mixture, None = 100; for inhibition of XP2 by metal ion (in words): 1 mM
Experimental: as §1

XP1 [3] = experiment: biochemical; type: biochemical, Bacillus sp. 2113; details: inhibitor 1 mM, 4° C. overnight, also 1 mM in reaction mixture, None = 100; for activity at 1000 µM: read-out: Relative Activity(%) XP1
Experimental: (§2) Various inhibitors and the like were added to each of the enzyme solutions to a concentration of 1 mM and retained at 4° C. overnight. Then, the same substance was also added to a reaction mixture to a concentration of 1 mM, and the enzyme activities of XP1 and XP2 were determined.

XP2 [4] = type: biochemical, Bacillus sp. 2113
Experimental: as §2

XP1 [5] = target: T1, XP1 (Paenibacillus sp. DG-22, UniProt A4GG22); experiment: biochemical; type: biochemical, Bacillus sp. 2113; details: for activity at 1000 µM: read-out: Relative Activity(%) XP1
T1 sequence (A4GG22 29-211): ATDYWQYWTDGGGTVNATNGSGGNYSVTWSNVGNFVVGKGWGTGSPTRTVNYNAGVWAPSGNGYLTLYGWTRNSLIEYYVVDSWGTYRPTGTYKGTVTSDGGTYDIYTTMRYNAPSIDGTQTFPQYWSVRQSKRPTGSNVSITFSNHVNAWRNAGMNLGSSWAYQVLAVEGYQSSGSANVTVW
Experimental: as §2

[6] = Action: thin-layer chromatography of reaction products from birch xylan; type: biochemical; details: 1% birch xylan, pH 7.0, 60° C., 10 U enzyme, TLC
Experimental: To 5 ml of 1% birch xylan (Sigma) solution (pH 7.0, in 40 mM sodium phosphate buffer), 10 U of each of XP1 and XP2 was added and reacted at 60° C. After a certain reaction period, the reaction was terminated by boiling and 10 μl of the reaction mixture was subjected to thin-layer chromatography using HPTLC Kieselgel 60 F254 (Merk) as a thin layer and a mixture of n-butanol, acetic acid and water (10:5:1) as a developer. The coloring was carried out by spraying a diphenylamine-aniline reagent and heating at 120° C. for 10 minutes.
The number of minutes shown in this FIG. represents the reaction time of the enzyme.

Substrate specificity = type: biochemical
[7] = Optimum pH for reaction (enzyme activity measured at each pH); type: biochemical
Experimental: (§3) For each of the enzymes, the optimum pH and pH stability were determined by using glycine-HCl buffer (pH 3 or below), acetate buffer (pH 4-5), sodium phosphate buffer (pH 6-7), Tris-HCl buffer (pH 8-9) and glycine-NaOH buffer (pH 9.1-10.1). The enzyme activity of each xylanase was measured at each of the pH values.
(§4) Fifty microliters of a sample solution is added to 200 μl of 1% birch xylan (Sigma) solution (pH 6.5, in 1/10 McIlvaine buffer), and reacted at 70° C. for 5 minutes. Five hundreds microliters of DNS reagent is added thereto and boiled for 5 minutes. Then, the reaction mixture is immediately ice-cooled and 4 ml distilled water is added thereto. Thereafter, absorbance at 500 nm is measured. Calibration curves are prepared by using a xylose solution of known concentration.
(§5) As to the unit of xylanase activity, one unit (U) was defined as the amount of enzyme which releases […] of reducing sugar per minute under the above conditions.

[8] = pH stability (enzyme activity after two nights in buffer); type: physicochemical; details: retained in 50 mM buffer for two nights
Experimental: as §3
In addition, each of the enzymes was retained in a certain 50 mM buffer for two nights and then the enzyme activity was determined.

[9] = Enzyme activity at different temperatures (optimum / appropriate temperature); type: biochemical
Experimental: as §4, §5
The enzyme activity of each enzyme was determined at different temperatures.

[10] = Thermostability (residual activity after 30 min at a certain temperature); type: physicochemical; details: 50 mM Tris-HCl buffer (pH 7.2)
Experimental: In addition, after each enzyme was left in 50 mM Tris-HCl buffer (pH 7.2) for 30 minutes at a certain temperature, the enzyme activity was determined.

[11] = Determination of xylanase activity (DNS reducing sugar method); type: biochemical; details: purified enzyme
Experimental: as §4, §5
Fifty microliters of the crude enzyme solution was added to 200 μl of 1% birch xylan (Sigma) solution (in 1/10 McIlvaine buffer, pH 6. 5), and reacted at 70° C. for 5 minutes.
After addition of DNS reagent (500 μl) and subsequent boiling for 5 minutes, the reaction mixture was immediately ice-cooled and 4 ml of distilled water was added thereto. Then, absorbance at 500 nm was measured. Calibration curves were prepared by using a xylose solution of known concentration.
As to the unit of xylanase activity, one unit (U) was defined as the amount of enzyme which releases 1 μmol of reducing sugar per minute under the above conditions. […]

XP1 [12] = target: T1, XP1; experiment: Effects of metal salts on enzyme activity of XP1; type: biochemical, Bacillus sp. 2113; details: 1 mM
T1 sequence (A4GG22 29-211): as above
Experimental: as §1

[13] = inhibitor 1 mM, 4° C. overnight, also 1 mM in reaction mixture, None = 100

[Cl-].[Li+] [LiCl]
Relative Activity(%) XP1 (XP1 [1]): 128% | Relative Activity(%) XP2 (XP2 [2]): 99%

[N-]=[N+]=[N-].[Na+] [NaN3]
Relative Activity(%) XP1 (XP1 [3]): 96% | Relative Activity(%) XP2 (XP2 [4]; [13]): 109%

[Ca+2].[Cl-].[Cl-] [CaCl2]
Relative Activity(%) XP1 (XP1 [1]): 106% | Relative Activity(%) XP2 (XP2 [2]): 98%

[Cl-].[Cl-].[Co+2] [CoCl2]
Relative Activity(%) XP1 (XP1 [1]): 107% | inhibition of XP2 by metal ion (in words) (XP2 [2]): weakly inhibited | Relative Activity(%) XP2 (XP2 [2]): 70%

O=S(=O)([O-])[O-].[Fe+2] [FeSO4]
Relative Activity(%) XP1 (XP1 [1]): 165% | Relative Activity(%) XP2 (XP2 [2]): 99%

[Cl][Cu][Cl] [CuCl2]
Relative Activity(%) XP1 (XP1 [1]): 87% | inhibition of XP2 by metal ion (in words) (XP2 [2]): weakly inhibited | Relative Activity(%) XP2 (XP2 [2]): 68%

O[C@H](CS)[C@H](O)CS (racemic) [Dithiothreitol]
activity at 1000 µM (XP1 [3]): 85% | Relative Activity(%) XP2 (XP2 [4]; [13]): 82%

O=C(O)CI [Iodoacetic acid]
inhibition of XP1 by inhibitor (in words) (XP1 [5]): weakly inhibited | activity at 1000 µM (XP1 [5]): 75% | Relative Activity(%) XP2 (XP2 [4]): 76% | inhibition of XP2 by inhibitor (in words) (XP2 [4]): weakly inhibited

[Cl][Mn][Cl] [MnCl2]
Relative Activity(%) XP1 (XP1 [1]): 99% | inhibition of XP2 by metal ion (in words) (XP2 [2]): weakly inhibited | Relative Activity(%) XP2 (XP2 [2]): 74%

XP1: thermostable xylanase from Bacillus sp. 2113 culture, active fraction eluted earlier; amino acid sequence SEQ ID NO: 1
products formed upon acting on xylan [6]: xyloligosaccharides | substrate specificity (Substrate specificity): act on prepared xylans such as birch xylan and oat spelt xylan, as well as xylan-containing materials such as hardwood kraft pulp and oat spelt bran; also recorded: acting on prepared xylans including birch xylan and oat spelt xylan, as well as xylan-containing materials including hardwood kraft pulp and oat spelt bran | optimum pH for reaction [7]: 5-8 | pH at which the xylanase is stable [8]: 3.0-9.0 | optimum temperature for reaction [9]: 70 °C | residual enzyme activity after 30 min treatment at 50° C. ([10]; 50° C.): ≥ 90% | residual enzyme activity after 30 min treatment at 60° C. ([10]; 60° C.): ≥ 50% | specific activity [11]: 1420 U/mg

[Cl][Hg][Cl] [HgCl2]
inhibition of XP1 by metal ion (in words) (XP1 [12]): strongly inhibited | Relative Activity(%) XP1 (XP1 [1]): 24% | inhibition of XP2 by metal ion (in words) (XP2 [2]): strongly inhibited | Relative Activity(%) XP2 (XP2 [2]): 0%

O=C(O)CN(CCN(CC(=O)O)CC(=O)O)CC(=O)O [EDTA]
inhibition of XP1 by inhibitor (in words) (XP1 [5]): weakly inhibited | activity at 1000 µM (XP1 [5]): 59% | Relative Activity(%) XP2 (XP2 [4]): 65% | inhibition of XP2 by inhibitor (in words) (XP2 [4]): weakly inhibited

CCCCCCCCCCCCOS(=O)(=O)O [SDS]
inhibition of XP1 by inhibitor (in words) (XP1 [5]; 1 mM): strongly inhibited | activity at 1000 µM (XP1 [3]): 0% | inhibition of XP2 by inhibitor (in words) (XP2 [4]; 1 mM): strongly inhibited | Relative Activity(%) XP2 (XP2 [4]; [13]): 0%

[Cl][Ni][Cl] [NiCl2]
Relative Activity(%) XP1 (XP1 [1]): 129% | Relative Activity(%) XP2 (XP2 [2]): 93%

[Cl][Al]([Cl])[Cl] [AlCl3]
Relative Activity(%) XP1 (XP1 [1]): 110% | Relative Activity(%) XP2 (XP2 [2]): 100%

[Cl-].[Rb+] [RbCl]
Relative Activity(%) XP1 (XP1 [1]): 121% | Relative Activity(%) XP2 (XP2 [2]): 98%

[Ba+2].[Cl-].[Cl-] [BaCl2]
Relative Activity(%) XP1 (XP1 [1]): 137% | Relative Activity(%) XP2 (XP2 [2]): 108%

[Cl-].[Cl-].[Mg+2] [MgCl2]
Relative Activity(%) XP1 (XP1 [1]): 129% | Relative Activity(%) XP2 (XP2 [2]): 103%
